# Patent US7655395B2, “Isolation and use of ryanodine receptors” (E.I. du Pont de Nemours and Company, priority 2002, dated 2010)
# How the values were obtained:
# [1] = tested on: control cells without DNA / wild-type Sf9 cells; assay: Calcium response in control Sf9 cells (without DNA, lipid only, non-transfected, wild type); assay type: cell-based, Spodoptera frugiperda
# Text: Several drops of a suspension of recombinant Spodoptera frugiperda cell line, Sf9, transiently expressing insect ryanodine receptors were placed on a poly-L-lysine-coated coverslip and allowed to attach. Cells were then rinsed in physiological saline having the following composition (mM): NaCl 130; KCl 5.4; MgCl2 1.2; CaCl2 1.0; NaHCO3 4.2; NaH2P04 7.3; Glucose 10; Sucrose 63; MES 20; pH 6.3. Cells were then bathed in physiological saline containing the calcium sensitive fluoroprobe, Fura-2 AM (2 μM), and Pluronic F127 (0.002%) for 30 min. Cells were rinsed in standard physiological saline for at least 15 min prior to testing. Testing was conducted in standard physiological saline, as the cell lines are devoid of functional voltage-gated calcium channels.
# Imaging studies were conducted using a Nikon Diaphot microscope with a 40× oil immersion objective (NA 1.3) Image acquisition and processing was performed using the MetaFluor™ imaging system from Universal Imaging Corporation (West Chester, Pa.) Calcium calibration was carried out using the Grynkiewicz equation with a dissociation constant (Kd) of 145 nM for Fura-2 (Grynkiewicz et al., 1985). Cell-attached coverslips were placed in a sealed chamber with physiological saline continuously perfused across the cells using a peristaltic pump. Test compounds solubilized in physiological saline were applied by switching the perfusate source.
# For studies involving the stable recombinant Spodoptera frugiperda cell line, Sf9, (other cell lines could also be used such as Sf21, S2, etc) expressing an insect ryanodine receptor from Drosophila melanogaster, or Heliothis virescens (alternatively receptors from other species such as Myzus persicae, Peregrinus maidis, Aphis gossypii, etc) were grown in T75 (or other appropriate sized) flasks in supplemented Grace's insect medium. Cells were maintained in an incubator at 22° C. until testing. Cells were suspension-loaded with the calcium sensitive fluoroprobe, Fura-2 AM (1-2 μM) and Pluronic F127 (0.002%) in culture medium for 30 minutes under agitation. Cells were then centrifuged and the pellet resuspended in physiological saline having the following composition (mM): NaCl 130; KCl 5.4; MgCl2 1.2; CaCl2 1.0; NaHCO3 4.2; NaH2P04 7.3; Glucose 10; Sucrose 63; MES 20; pH 6.3 at approximately 150,000-200,000 cells per well (96-well plate). After a 30 minute equilibration period the cell plate was tested using a Molecular Devices' FlexStation™ system with dual wavelength excitation (340 and 380 nm) and fluorescence emission measured at 510 nm. Test and control samples were added using integrated fluidics and the intracellular calcium monitored over a 2 minute period.
# [2] = tested on: native cockroach ryanodine receptors (in embryonic neuronal cells); assay: Calcium release assay, calcium imaging of embryonic cockroach neuronal cells (Fluo-4); assay type: cell-based, Periplaneta americana
# Text: Embryonic neuronal cultures of the American cockroach Periplaneta americana were established, with minor modifications, following the method of Beadle and Lees (1988) (in Cell Culture Approaches to Invertebrate Neuroscience, Academic Press, New York, pp 123-127). Briefly, 26-27-day old oothecae were collected, surface-sterilized and cut open along a line one-third of the distance below the dorsal midline. The heads were removed and placed in Schneider's Drosophila medium (Invitrogen Life Technologies™, Carlsbad, Calif.). Using fine forceps 40 brains were individually removed and placed in a small glass vial containing 700 μl of ‘5+4’ medium (‘5+4’ medium contained 5 parts Schneider's Drosophila medium plus 4 parts roach Basal Medium Eagle, with Earle's salts (BME, Sigma™, St. Louis, Mo.). Roach BME (with Earle's salts) contained 5 parts Hepes (1 M), 1 part penicillin/streptomycin and 44 parts BME (with Earle's salts). ‘5+4’ medium was made fresh and sterile filtered (0.2 μm filter) just prior to use). The brains were dissociated by sequential trituration as follows: 1) brains were passed through a standard Pasteur pipette 10 times; 2) the resulting tissue suspension was passed an additional 5 times through a Pasteur pipet with tip flamed to about half of its original diameter; 3) a final 5 passes were performed using a Pasteur pipet with tip flamed to slightly less than half of its original diameter. A repeat pipettor was used to dispense a 5 μl volume of the resulting suspension into the center of each well of a 96-well, glass-bottom plate previously coated with poly-L-lysine (0.2 mg/ml solution). Cells attached to the bottom of the wells during a 50 min incubation at 27-29° C. 150 ul of a 1:1 mixture of Leibovitz's L-15 medium and Yunker's modified Grace's medium was added, and plates were maintained in a humid incubator at 27-29° C. until use. After cells were allowed to attach wells were filled with a 1:1 mixture of Leibovitz's L-15 medium and Yunker's modified Grace's medium (Leibovitz's L-15 and Grace's medium were obtained from Invitrogen Life Technologies™, Carlsbad, Calif. and Yunker's modified Grace's medium was made with Grace's medium modified by addition of 5 mg L-methionine, 10 mg L-alanine, 182 mg MgCl2.6H20, 1 g Albumin Fraction V, 7 ml Fetal bovine serum, 10 ml Chick embryo extract, 2 ml Penicillin/Streptomycin, and 2 mg 20-hydroxyecdysone (prepared in ethanol prior to addition) to a final volume of 100 ml and sterile filtered (0.2 μm filter)). Cells were maintained in a high humidity incubator at 29° C. until testing.
# The calcium imaging and acquisition protocols using roach neuronal cells is as follows:
# Cells were rinsed in standard physiological saline having the following composition (mM): NaCl 190; CaCl2 9; KCl 3.1; probenicid 1; Tris buffer 10; pH 7.2. Cells were then bathed in standard physiological saline containing the calcium sensitive fluoroprobe Fluo-4 AM (2 μM) and Pluronic F127 (0.002%) for 45 min. Cells were then rinsed in standard physiological saline for at least 15 min prior to testing. Within the hour prior to testing, standard physiological saline was replaced with standard physiological saline containing the organic cation channel blocker pimozide (10 μM), to inhibit influx of external calcium through voltage-gated calcium channels. The 96-well plate was placed on a Prior™ motorized stage mounted onto a Nikon Diaphot microscope and imaged using a 20× Fluor objective (NA 0.75). Individual wells from the 96-well plate were sequentially excited with light at 495 nm, and the emitted fluorescence at 530 nm was detected using a Hamamatsu ORCA ER digital camera with 2 pixel binning (image size 672×512 pixels).
# Acquisition control, image processing and image analysis were conducted using Universal Imaging Corporation's MetaMorph™ imaging software (Universal Imaging, West Chester, Pa.). A series of 3 “control” images were acquired for each well. […]
Structure (SMILES),calcium response in control cells without DNA ([1]; caffeine 10 mM),"caffeine dose response, calcium mobilization ([1]; wild-type Sf9 cells (Sf9-WT), FlexStation, FIG. 6)","Calcium Release (P. americana) ([2]; Table 6, result in words)",Calcium Release Threshold (nM) P. americana [2]
"Cn1c(=O)c2c(ncn2C)n(C)c1=O [Caffeine, reference compound]",No significant calcium responses,insensitive,Agonist,–
CNC(=O)c1cc(Cl)cc(C)c1NC(=O)c1cc(Br)nn1-c1ncccc1Cl [Cpd 14],–,–,–,<300 nM
